Laboratory results: patent US20100178317A1, “Lens Care Solutions with Hyaluronic Acid” (priority 2009, published 2010)

Assay: Precipitate formation of polyquaternium-1 in hyaluronic acid compositions
Format: physicochemical
Conditions: polyquaternium-1 concentration beyond 3 ppm
Description: One of the more common quaternary ammonium compounds is α-[4-tris(2-hydroxyethyl)-ammonium chloride-2-butenyl]poly[1-dimethyl ammonium chloride-2-butenyl]-ω-tris(2-hydroxyethyl) ammonium chloride, also referred to in the art as polyquaternium-1. Quaternary ammonium compounds are generally referred to in the art as “polyquatemium” disinfectants, and are identified by a particular number following the designation such as polyquaternium-1, polyquaternium-10 or polyquaternium-42. Polyquaternium-1 is present in the ophthalmic compositions from 0.5 ppm to 3 ppm. […] The precipitate is believed to be the complexation product of hyaluronic acid and polyquaternium-1.

## α-[4-tris(2-hydroxyethyl)-ammonium chloride-2-butenyl]poly[1-dimethyl ammonium chloride-2-butenyl]-ω-tris(2-hydroxyethyl) ammonium chloride [polyquaternium-1]
  compatibility with hyaluronic acid in the compositions: formation of a precipitate
